# From ChEMBL document CHEMBL1201862, “PubChem BioAssay data set” (2004)
#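 All cell lines were grown in 96-well plates and treated with compound for 48 hours. GI50 = concentration required for 50% inhibition of growth.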 Active and inactive are the calls of the source. Cut-off read from the data, not from the text of the source: active = GI50 up to about 1.1 µM and inactive = higher.
# What was measured:
# Assay in all cases: NCI anticancer screen, dose series, 48 h
# [1] = test system: DLD-1
# [2] = test system: NCI-H460
# [3] = test system: LOX IMVI
# [4] = test system: OVCAR-8
# [5] = test system: SN12C
# [6] = test system: HOP-18
# [7] = test system: LXFL 529
# [8] = test system: DMS-273
# [9] = test system: RXF 631
# [10] = test system: KM-20L2
# [11] = test system: UO-31
# [12] = test system: SF-268
# [13] = test system: SW-620
# [14] = test system: SK-OV-3
# [15] = test system: HOP-92
# [16] = test system: HL-60
# [17] = test system: U-251
# [18] = test system: HCT-116
# [19] = test system: SK-MEL-5
# [20] = test system: COLO 205
# [21] = test system: A549
# [22] = test system: EKVX
# [23] = test system: A498
# [24] = test system: XF498
# [25] = test system: NCI-H23
# [26] = test system: TK-10
# [27] = test system: CCRF-CEM
# [28] = test system: NCI-H522
# [29] = test system: HCT-15
# [30] = test system: RPMI-8226
# [31] = test system: HOP-62
# [32] = test system: SK-MEL-28
# [33] = test system: M14
# [34] = test system: MOLT-4
# [35] = test system: DMS-114
# [36] = test system: SF-539
# [37] = test system: RXF 393
# [38] = test system: ACHN
# [39] = test system: K562
# [40] = test system: IGROV-1
# [41] = test system: OVCAR-4
# [42] = test system: SF-295
# [43] = test system: SNB-75
# [44] = test system: CAKI-1
# [45] = test system: Malme-3M
# [46] = test system: OVCAR-3
# [47] = test system: UACC-62
# [48] = test system: M19-MEL
# [49] = test system: HCC 2998
# [50] = test system: 786-0
# [51] = test system: SNB-19
# [52] = test system: HT-29
# [53] = test system: SNB-78
compound,measurement,setting,value
CCc1nc2ccccc2c(=O)n1/N=C(\N=N\c1ccc(Cl)cc1)c1ccc(N(C)C)cc1,GI50,[1],30.1 µM (inactive)
same,GI50,[2],24.5 µM (inactive)
same,GI50,[3],47.5 µM (inactive)
same,GI50,[4],34.9 µM (inactive)
same,GI50,[5],27.7 µM (inactive)
same,GI50,[6],25.5 µM (inactive)
same,GI50,[7],23.7 µM (inactive)
same,GI50,[8],32.3 µM (inactive)
same,GI50,[9],67.6 µM (inactive)
same,GI50,[10],23.6 µM (inactive)
same,GI50,[11],12.2 µM (inactive)
same,GI50,[12],32.1 µM (inactive)
same,GI50,[13],45.1 µM (inactive)
same,GI50,[14],27.7 µM (inactive)
same,GI50,[15],13.7 µM (inactive)
same,GI50,[16],20.5 µM (inactive)
same,GI50,[17],27.3 µM (inactive)
same,GI50,[18],17.7 µM (inactive)
same,GI50,[19],21.9 µM (inactive)
same,GI50,[20],27.2 µM (inactive)
same,GI50,[21],42.7 µM (inactive)
same,GI50,[22],28.1 µM (inactive)
same,GI50,[23],38.3 µM (inactive)
same,GI50,[24],25.1 µM (inactive)
same,GI50,[25],22.8 µM (inactive)
same,GI50,[26],61.9 µM (inactive)
same,GI50,[27],27.6 µM (inactive)
same,GI50,[28],22.3 µM (inactive)
same,GI50,[29],29.2 µM
same,GI50,[30],17.4 µM (inactive)
same,GI50,[31],13.3 µM (inactive)
same,GI50,[32],30.1 µM (inactive)
same,GI50,[33],33.3 µM (inactive)
same,GI50,[34],20.6 µM (inactive)
same,GI50,[35],12.2 µM (inactive)
same,GI50,[36],30.3 µM (inactive)
same,GI50,[37],56 µM (inactive)
same,GI50,[38],28.7 µM (inactive)
same,GI50,[39],16.7 µM (inactive)
CCOC(=O)C1(C)CCCCC(=O)N1 (centres undefined),GI50,[1],> 100 µM (inactive)
same,GI50,[2],> 100 µM (inactive)
same,GI50,[40],> 100 µM (inactive)
same,GI50,[41],> 100 µM (inactive)
same,GI50,[3],> 100 µM (inactive)
same,GI50,[4],> 100 µM (inactive)
same,GI50,[42],> 100 µM (inactive)
same,GI50,[5],> 100 µM (inactive)
same,GI50,[6],64.3 µM (inactive)
same,GI50,[7],> 100 µM (inactive)
same,GI50,[8],> 100 µM (inactive)
same,GI50,[9],> 100 µM (inactive)
same,GI50,[10],> 100 µM (inactive)
same,GI50,[11],> 100 µM (inactive)
same,GI50,[43],> 100 µM (inactive)
same,GI50,[44],> 100 µM (inactive)
same,GI50,[12],> 100 µM (inactive)
same,GI50,[13],> 100 µM (inactive)
same,GI50,[14],> 100 µM (inactive)
same,GI50,[15],> 100 µM (inactive)
same,GI50,[16],> 100 µM (inactive)
same,GI50,[17],> 100 µM (inactive)
same,GI50,[20],> 100 µM (inactive)
same,GI50,[21],> 100 µM (inactive)
same,GI50,[45],> 100 µM (inactive)
same,GI50,[46],> 100 µM (inactive)
same,GI50,[47],> 100 µM (inactive)
same,GI50,[22],> 100 µM (inactive)
same,GI50,[48],> 100 µM (inactive)
same,GI50,[49],> 100 µM (inactive)
same,GI50,[24],> 100 µM (inactive)
same,GI50,[25],> 100 µM (inactive)
same,GI50,[26],> 100 µM (inactive)
same,GI50,[50],> 100 µM (inactive)
same,GI50,[29],> 100 µM
same,GI50,[51],> 100 µM (inactive)
same,GI50,[31],> 100 µM (inactive)
same,GI50,[32],> 100 µM (inactive)
same,GI50,[33],> 100 µM (inactive)
same,GI50,[52],> 100 µM (inactive)
same,GI50,[53],> 100 µM (inactive)
same,GI50,[35],> 100 µM (inactive)
same,GI50,[37],> 100 µM (inactive)
same,GI50,[38],> 100 µM (inactive)
same,GI50,[39],> 100 µM (inactive)
